Values after ≈ are worked out from the molar mass of the structure shown.
Legend:
Ent. cloacae ATCC 13047 = assay: MIC in Nutrient Broth No. 2; type: cell-based, Enterobacter cloacae; conditions: Nutrient Broth No. 2
Protocol: (§1) Bacteria species as indicated in Table 1 were incubated for approximately 24 hours at 37° C.
(§2) The tests were repeated with the addition of inducers. Methyl glycoside was the main inducer used, but other suitable inducers include isopropyl-β-D-thiogalactopyranoside, p-nitrophenyl-α-L-arabinopyranoside and p-nitrophenyl-β-D-xylopyranoside. Concentration of inducer in all cases was 100 μg/ml.

[1] = system: Kleb. aerogenes NCTC 88167; assay: MIC in Nutrient Broth No. 2; type: cell-based, Klebsiella aerogenes; conditions: Nutrient Broth No. 2
Protocol: as §1, §2

[2] = system: Aeromonas hydrophila OCC 778; assay: MIC in Nutrient Broth No. 2; type: cell-based; conditions: Nutrient Broth No. 2
Protocol: as §1, §2

[3] = system: Bacillus cereus ATCC 14579; assay: MIC in Nutrient Broth No. 2; type: cell-based; conditions: Nutrient Broth No. 2
Protocol: as §1, §2

[4] = system: Bacillus subtilis NCTC 10073; assay: MIC in Nutrient Broth No. 2; type: cell-based; conditions: Nutrient Broth No. 2
Protocol: as §1, §2

[5] = system: Citrobacter freundii OCC 851; assay: MIC in Nutrient Broth No. 2; type: cell-based; conditions: Nutrient Broth No. 2
Protocol: as §1, §2

[6] = system: Enterobacter aerogenes ATCC 13048; assay: MIC in Nutrient Broth No. 2; type: cell-based; conditions: Nutrient Broth No. 2
Protocol: as §1, §2

[7] = system: Enterococcus faecalis ATCC 29212; assay: MIC in Nutrient Broth No. 2; type: cell-based; conditions: Nutrient Broth No. 2
Protocol: as §1, §2

[8] = system: Enterococcus faecium ATCC 19434; assay: MIC in Nutrient Broth No. 2; type: cell-based; conditions: Nutrient Broth No. 2
Protocol: as §1, §2

Escherichia coli = assay: MIC in Nutrient Broth No. 2; type: cell-based; conditions: 8 strains, Nutrient Broth No. 2
Protocol: as §1, §2

Hafnia alvei ATCC 13337 = assay: MIC in Nutrient Broth No. 2; type: cell-based; conditions: Nutrient Broth No. 2
Protocol: as §1, §2

[9] = system: Proteus mirabilis ATCC 12453; assay: MIC in Nutrient Broth No. 2; type: cell-based; conditions: Nutrient Broth No. 2
Protocol: as §1, §2

Proteus vulgaris OCC 195 = assay: MIC in Nutrient Broth No. 2; type: cell-based; conditions: Nutrient Broth No. 2
Protocol: as §1, §2

[10] = system: Ps. Aeruginosa ATCC 27853; assay: MIC in Nutrient Broth No. 2; type: cell-based; conditions: Nutrient Broth No. 2
Protocol: as §1, §2

Salmonella = assay: MIC in Nutrient Broth No. 2; type: cell-based; conditions: 11 strains, Nutrient Broth No. 2
Protocol: as §1, §2

[11] = system: Serratia marcescens OCC 217; assay: MIC in Nutrient Broth No. 2; type: cell-based; conditions: Nutrient Broth No. 2
Protocol: as §1, §2

Staph. aureus = assay: MIC in Nutrient Broth No. 2; type: cell-based, Staphylococcus aureus; conditions: 8 strains, Nutrient Broth No. 2
Protocol: as §1, §2

[12] = system: Staph. saprophyticus ATCC 15305; assay: MIC in Nutrient Broth No. 2; type: cell-based, Staphylococcus saprophyticus; conditions: Nutrient Broth No. 2
Protocol: as §1, §2

[13] = system: Strep. agalactiae OCC 182; assay: MIC in Nutrient Broth No. 2; type: cell-based, Streptococcus agalactiae; conditions: Nutrient Broth No. 2
Protocol: as §1, §2

[14] = system: Strep. pyogenes ATCC 19615; assay: MIC in Nutrient Broth No. 2; type: cell-based, Streptococcus pyogenes; conditions: Nutrient Broth No. 2
Protocol: as §1, §2

Ent. faecalis = assay: MIC in Nutrient Agar; type: cell-based, Enterococcus faecalis; conditions: Nutrient Agar containing 0.1 μg/ml of inducer; 37° C., 24 hours
Protocol: (§3) The triclosan-glycosides were added to Nutrient Agar (Oxoid CM0003; Thermofisher Scientific) and organisms were transferred onto the plates surface using a multi-point inoculation device (Oxoid Cathra, Thermofisher Scientific). The latter is essentially a metal plate containing a number of needles. Each needle tip (usually 36 per plate) dips into an organism suspension (in phosphate buffered saline; PBS) and the needles are then moved over the agar plate and lowered onto its surface. In this way the growth of colonies of up to 36 different organisms can be observed on one plate.
(§4) Nutrient Agar No. 2 was prepared according to the manufacturers instructions, autoclaved and cooled to 50° C. Test compounds were then added as filter sterilised solutions (50:50 deionised water:ethanol), to give final concentrations from 256 μg/ml to 0 μg/ml in doubling dilutions. […] The mixtures were swirled then four plates (25 ml molten agar) were poured for each concentration. Plates were dried in a laminar flow cabinet then inoculated with overnight cultures of organisms that had been decimally diluted twice in sterile saline solution (approximately 10^7 cfu/ml) using a multi-point inoculator. Plates were then incubated at 37° C. for 24 hours. MICs were determined as the concentration at which no growth was observed.

Ent. faecium = assay: MIC in Nutrient Agar; type: cell-based, Enterococcus faecium; conditions: Nutrient Agar containing 0.1 μg/ml of inducer; 37° C., 24 hours
Protocol: as §3, §4

S. haemolyticus = assay: MIC in Nutrient Agar; type: cell-based, Staphylococcus haemolyticus; conditions: Nutrient Agar containing 0.1 μg/ml of inducer; 37° C., 24 hours
Protocol: as §3, §4

Str. pneumoniae = assay: MIC in Nutrient Agar; type: cell-based, Streptococcus pneumoniae; conditions: Nutrient Agar containing 0.1 μg/ml of inducer; 37° C., 24 hours
Protocol: as §3, §4

Str. viridans = assay: MIC in Nutrient Agar; type: cell-based, Streptococcus viridans; conditions: Nutrient Agar containing 0.1 μg/ml of inducer; 37° C., 24 hours
Protocol: as §3, §4

Aer. hydrophila = assay: MIC in Nutrient Agar; type: cell-based, Aeromonas hydrophila; conditions: Nutrient Agar containing 0.1 μg/ml of inducer; 37° C., 24 hours
Protocol: as §3, §4

C. freundii = assay: MIC in Nutrient Agar; type: cell-based, Citrobacter freundii; conditions: Nutrient Agar containing 0.1 μg/ml of inducer; 37° C., 24 hours
Protocol: as §3, §4

Cr. sakazakii = assay: MIC in Nutrient Agar; type: cell-based, Cronobacter sakazakii; conditions: Nutrient Agar containing 0.1 μg/ml of inducer; 37° C., 24 hours
Protocol: as §3, §4

E. coli = assay: MIC in Nutrient Agar; type: cell-based, Escherichia coli; conditions: 8 strains; Nutrient Agar containing 0.1 μg/ml of inducer; 37° C., 24 hours
Protocol: as §3, §4

E. hermanii = assay: MIC in Nutrient Agar; type: cell-based, Escherichia hermanii; conditions: Nutrient Agar containing 0.1 μg/ml of inducer; 37° C., 24 hours
Protocol: as §3, §4

Kleb. aerogenes = assay: MIC in Nutrient Agar; type: cell-based, Klebsiella aerogenes; conditions: Nutrient Agar containing 0.1 μg/ml of inducer; 37° C., 24 hours
Protocol: as §3, §4

Kleb. pneumoniae = assay: MIC in Nutrient Agar; type: cell-based, Klebsiella pneumoniae; conditions: Nutrient Agar containing 0.1 μg/ml of inducer; 37° C., 24 hours
Protocol: as §3, §4

Ser. marcescens = assay: MIC in Nutrient Agar; type: cell-based, Serratia marcescens; conditions: Nutrient Agar containing 0.1 μg/ml of inducer; 37° C., 24 hours
Protocol: as §3, §4

## OC[C@H]1O[C@H](Oc2cc(Cl)ccc2Oc2ccc(Cl)cc2Cl)[C@@H](O)[C@@H](O)[C@@H]1O [α-D-Mannoside, triclosan-α-D-mannopyranoside]
Ent. cloacae ATCC 13047; with inducer 100 μg/ml
  MIC: 8 µg/mL (≈ 17.7 µM)
Ent. cloacae ATCC 13047; without inducer
  MIC: 8 µg/mL (≈ 17.7 µM)
[1]; with inducer 100 μg/ml
  MIC: 32 µg/mL (≈ 70.8 µM)
[1]; without inducer
  MIC: 32 µg/mL (≈ 70.8 µM)
[2]; with inducer 100 μg/ml
  MIC: >256 µg/mL
[2]; without inducer
  MIC: >256 µg/mL
[3]; with inducer 100 μg/ml
  MIC: 256 µg/mL (≈ 567 µM)
[3]; without inducer
  MIC: 256 µg/mL (≈ 567 µM)
[4]; with inducer 100 μg/ml
  MIC: 256 µg/mL (≈ 567 µM)
[4]; without inducer
  MIC: 128 µg/mL (≈ 283 µM)
[5]; with inducer 100 μg/ml
  MIC: 64 µg/mL (≈ 142 µM)
[5]; without inducer
  MIC: 64 µg/mL (≈ 142 µM)
[6]; with inducer 100 μg/ml
  MIC: 32 µg/mL (≈ 70.8 µM)
[6]; without inducer
  MIC: 32 µg/mL (≈ 70.8 µM)
[7]; with inducer 100 μg/ml
  MIC: 256 µg/mL (≈ 567 µM)
[7]; without inducer
  MIC: 256 µg/mL (≈ 567 µM)
[8]; with inducer 100 μg/ml
  MIC: 256 µg/mL (≈ 567 µM)
[8]; without inducer
  MIC: 256 µg/mL (≈ 567 µM)
Escherichia coli; with inducer 100 μg/ml
  MIC: 4 to 32 µg/mL
Escherichia coli; without inducer
  MIC: 4 to 64 µg/mL
Hafnia alvei ATCC 13337; with inducer 100 μg/ml
  MIC: 4 µg/mL (≈ 8.86 µM)
Hafnia alvei ATCC 13337; without inducer
  MIC: 4 µg/mL (≈ 8.86 µM)
[9]; with inducer 100 μg/ml
  MIC: 8 µg/mL (≈ 17.7 µM)
[9]; without inducer
  MIC: 16 µg/mL (≈ 35.4 µM)
Proteus vulgaris OCC 195; with inducer 100 μg/ml
  MIC: 32 µg/mL (≈ 70.8 µM)
Proteus vulgaris OCC 195; without inducer
  MIC: 32 µg/mL (≈ 70.8 µM)
[10]; with inducer 100 μg/ml
  MIC: >256 µg/mL
[10]; without inducer
  MIC: >256 µg/mL
Salmonella; with inducer 100 μg/ml
  MIC: 8 to 32 µg/mL
Salmonella; without inducer
  MIC: 16 to 64 µg/mL
[11]; with inducer 100 μg/ml
  MIC: >256 µg/mL
[11]; without inducer
  MIC: >256 µg/mL
Staph. aureus; with inducer 100 μg/ml
  MIC: 2 to 8 µg/mL
Staph. aureus; without inducer
  MIC: 2 to 8 µg/mL
[12]; with inducer 100 μg/ml
  MIC: 32 µg/mL (≈ 70.8 µM)
[12]; without inducer
  MIC: 32 µg/mL (≈ 70.8 µM)
[13]; with inducer 100 μg/ml
  MIC: 128 µg/mL (≈ 283 µM)
[13]; without inducer
  MIC: 128 µg/mL (≈ 283 µM)
[14]; with inducer 100 μg/ml
  MIC: 32 µg/mL (≈ 70.8 µM)
[14]; without inducer
  MIC: 32 µg/mL (≈ 70.8 µM)
Ent. faecalis
  MIC: 256 µg/mL (≈ 567 µM)
Ent. faecium
  MIC: 256 µg/mL (≈ 567 µM)
S. haemolyticus
  MIC: 8 µg/mL (≈ 17.7 µM)
Str. pneumoniae
  MIC: 64 µg/mL (≈ 142 µM)
Str. viridans
  MIC: 128 µg/mL (≈ 283 µM)
Aer. hydrophila
  MIC: 256 µg/mL (≈ 567 µM)
C. freundii
  MIC: 64 µg/mL (≈ 142 µM)
Cr. sakazakii
  MIC: 64 µg/mL (≈ 142 µM)
E. coli
  MIC: 8 to 64 µg/mL
E. hermanii
  MIC: 16 µg/mL (≈ 35.4 µM)
Kleb. aerogenes
  MIC: 32 µg/mL (≈ 70.8 µM)
Kleb. pneumoniae
  MIC: 16 µg/mL (≈ 35.4 µM)
Ser. marcescens
  MIC: >256 µg/mL

Reference: US9908912B2, “Triclosan derivatives and uses thereof” (priority 2012, dated 2018)
